Source: ChEMBL document CHEMBL6153110, “Peptide Double-Stapling and Arginine N-Glycosylation Triggered the Development of Therapeutic Antimicrobial Peptides Capable of Killing Drug-Resistant Bacteria in Mice” (J Med Chem, 2025)
Values after ≈ are worked out from the molar mass of the structure shown. Starred links: 1 amine or outer side, 2 acyl side, 3 side chain; linkers in the order of their positions; H or OH if unused. Positions of bridges follow the written chain, without caps; N, C: chain ends. Non-standard residues stand in square brackets, D forms with d. Residues, ends and D or L forms follow the SMILES beside them. X1 = N=C(NCCC[C@H](N[*:1])C(=O)[*:2])N[C@@H]1O[C@H](CO)[C@@H](O[C@H]2O[C@H](CO)[C@@H](O[C@H]3O[C@H](CO)[C@@H](O)[C@H](O)[C@H]3O)[C@H](O)[C@H]2O)[C@H](O)[C@H]1O; Arg(Nω-βLac) = N=C(NCCC[C@H](N)C(=O)O)N[C@@H]1O[C@H](CO)[C@@H](O[C@@H]2O[C@H](CO)[C@H](O)[C@H](O)[C@H]2O)[C@H](O)[C@H]1O; X2 = CC(=O)N[C@@H]1[C@@H](O)[C@H](O)[C@@H](CO)O[C@H]1NC(=N)NCCC[C@H](N[*:1])C(=O)[*:2]; S5 = C=CCCC[C@](C)(N)C(=O)O

Columns and labels:
Klebsiella pneumoniae = assay: Antimicrobial activity against Klebsiella pneumoniae ATCC 13883 assessed as growth inhibition measured after 8 hrs incubation by standard broth dilution assay; type: functional
Staphylococcus aureus = assay: Antimicrobial activity against methicillin-resistant Staphylococcus aureus ATCC 43300 assessed as growth inhibition measured after 8 hrs incubation by standard broth dilution assay; type: functional
Pseudomonas aeruginosa = assay: Antimicrobial activity against Pseudomonas aeruginosa ATCC 27853 assessed as growth inhibition measured after 8 hrs incubation by standard broth dilution assay; type: functional
Streptococcus pneumoniae = assay: Antimicrobial activity against Streptococcus pneumoniae ATCC 49619 assessed as growth inhibition measured after 8 hrs incubation by standard broth dilution assay; type: functional
[1] = Hemolytic activity in BALB/c mouse red blood cells assessed as hemolysis incubated for 1 hrs; type: toxicity, cell-based, Erythrocyte; conditions: read-out: HD50

Structure (SMILES)	MIC (Klebsiella pneumoniae) [µg/mL]	MIC (Staphylococcus aureus) [µg/mL]	MIC (Pseudomonas aeruginosa) [µg/mL]	MIC (Streptococcus pneumoniae) [µg/mL]	HC50 at 1 h [1] [µg/mL]
CC(=O)N[C@@H](CC(C)C)C(=O)N[C@@H](CCCCN)C(=O)N[C@@H](CCCNC(=N)N)C(=O)N[C@H](C(=O)N[C@@H](Cc1c[nH]c2ccccc12)C(=O)N[C@@H](CCCCN)C(=O)N[C@@H](CCCNC(=N)N)C(=O)N[C@H](C(=O)N[C@@H](Cc1ccccc1)C(=O)N[C@@H](CCCCN)C(=O)N[C@@H](CC(C)C)C(=O)N[C@@H](CCCCN)C(=O)N[C@@H](CCCCN)C(=O)N[C@@]1(C)CCC/C=C\CCC[C@@](C)(C(=O)N[C@@H](CC(C)C)C(=O)N[C@@H](CCCCN)C(=O)N[C@@H](CCCCN)C(=O)N2CCC[C@H]2C(=O)N[C@H](C(=O)N[C@@H](CCCNC(=N)N)C(N)=O)C(C)C)NC(=O)[C@H](CCCNC(=N)N)NC(=O)[C@H](Cc2c[nH]c3ccccc23)NC(=O)[C@H](Cc2ccc(O)cc2)NC1=O)C(C)C)C(C)C (Ac-LKRVWKRVFKLKK[S5]YWR[S5]LKKPVR-NH2; staple (Z) 14-18)	38 (≈ 11.7 µM)	10.1 (≈ 3.11 µM)	5 (≈ 1.54 µM)	4.7 (≈ 1.45 µM)	70.1
CC(=O)N[C@@H](CC(C)C)C(=O)N[C@@H](CCCCN)C(=O)N[C@@H](CCCNC(=N)N)C(=O)N[C@H](C(=O)N[C@@H](Cc1c[nH]c2ccccc12)C(=O)N[C@@H](CCCCN)C(=O)N[C@@H](CCCNC(=N)N)C(=O)N[C@H](C(=O)N[C@@H](Cc1ccccc1)C(=O)N[C@@H](CCCCN)C(=O)N[C@@H](CC(C)C)C(=O)N[C@@H](CC(C)C)C(=O)N[C@@H](CCCCN)C(=O)N[C@@H](CCCNC(=N)N)C(=O)N[C@@H](Cc1ccc(O)cc1)C(=O)N[C@@H](Cc1c[nH]c2ccccc12)C(=O)N[C@@H](CCCNC(=N)N)C(=O)N[C@@H](CCC(N)=O)C(=O)N[C@@H](CC(C)C)C(=O)N[C@@H](CCCCN)C(=O)N[C@@H](CCCCN)C(=O)N1CCC[C@H]1C(=O)N[C@H](C(=O)N[C@@H](CCCNC(=N)N[C@@H]1O[C@H](CO)[C@@H](O[C@@H]2O[C@H](CO)[C@H](O)[C@H](O)[C@H]2O)[C@H](O)[C@H]1O)C(N)=O)C(C)C)C(C)C)C(C)C (Ac-LKRVWKRVFKLLKRYWRQLKKPV[Arg(Nω-βLac)]-NH2)	38 (≈ 10.6 µM)	4.9 (≈ 1.36 µM)	5 (≈ 1.39 µM)	4.7 (≈ 1.31 µM)	39.7
CC(=O)N[C@@H](CC(C)C)C(=O)N[C@@H](CCCCN)C(=O)N[C@@H](CCCNC(=N)N)C(=O)N[C@H](C(=O)N[C@@H](Cc1c[nH]c2ccccc12)C(=O)N[C@@H](CCCCN)C(=O)N[C@@H](CCCNC(=N)N)C(=O)N[C@H](C(=O)N[C@@H](Cc1ccccc1)C(=O)N[C@@H](CCCCN)C(=O)N[C@@H](CC(C)C)C(=O)N[C@@H](CC(C)C)C(=O)N[C@@H](CCCCN)C(=O)N[C@@H](CCCNC(=N)N)C(=O)N[C@@H](Cc1ccc(O)cc1)C(=O)N[C@@H](Cc1c[nH]c2ccccc12)C(=O)N[C@@H](CCCNC(=N)N)C(=O)N[C@@H](CCC(N)=O)C(=O)N[C@@H](CC(C)C)C(=O)N[C@@H](CCCCN)C(=O)N[C@@H](CCCCN)C(=O)N1CCC[C@H]1C(=O)N[C@H](C(=O)N[C@@H](CCCNC(=N)N[C@@H]1O[C@H](CO)[C@@H](O[C@H]2O[C@H](CO)[C@@H](O[C@H]3O[C@H](CO)[C@@H](O)[C@H](O)[C@H]3O)[C@H](O)[C@H]2O)[C@H](O)[C@H]1O)C(N)=O)C(C)C)C(C)C)C(C)C (Ac-LKRVWKRVFKLLKRYWRQLKKPV[X1]-NH2)	38 (≈ 10.1 µM)	4.9 (≈ 1.31 µM)	2.6 (≈ 0.693 µM)	4.7 (≈ 1.25 µM)	45.7
CC(=O)N[C@@H]1[C@@H](O)[C@H](O)[C@@H](CO)O[C@H]1NC(=N)NCCC[C@H](NC(=O)[C@@H](NC(=O)[C@@H]1CCCN1C(=O)[C@H](CCCCN)NC(=O)[C@H](CCCCN)NC(=O)[C@H](CC(C)C)NC(=O)[C@H](CCC(N)=O)NC(=O)[C@H](CCCNC(=N)N)NC(=O)[C@H](Cc1c[nH]c2ccccc12)NC(=O)[C@H](Cc1ccc(O)cc1)NC(=O)[C@H](CCCNC(=N)N)NC(=O)[C@H](CCCCN)NC(=O)[C@H](CC(C)C)NC(=O)[C@H](CC(C)C)NC(=O)[C@H](CCCCN)NC(=O)[C@H](Cc1ccccc1)NC(=O)[C@@H](NC(=O)[C@H](CCCNC(=N)N)NC(=O)[C@H](CCCCN)NC(=O)[C@H](Cc1c[nH]c2ccccc12)NC(=O)[C@@H](NC(=O)[C@H](CCCNC(=N)N)NC(=O)[C@H](CCCCN)NC(=O)[C@H](CC(C)C)NC(C)=O)C(C)C)C(C)C)C(C)C)C(N)=O (Ac-LKRVWKRVFKLLKRYWRQLKKPV[X2]-NH2)	38 (≈ 10.9 µM)	4.9 (≈ 1.41 µM)	5 (≈ 1.44 µM)	4.7 (≈ 1.35 µM)	35.8
CC(=O)N[C@@H](CC(C)C)C(=O)N[C@@H](CCCCN)C(=O)N[C@@H](CCCNC(=N)N)C(=O)N[C@H](C(=O)N[C@@H](Cc1c[nH]c2ccccc12)C(=O)N[C@@H](CCCCN)C(=O)N[C@@H](CCCNC(=N)N)C(=O)N[C@H](C(=O)N[C@@H](Cc1ccccc1)C(=O)N[C@@H](CCCCN)C(=O)N[C@@H](CC(C)C)C(=O)N[C@@H](CC(C)C)C(=O)N[C@@H](CCCCN)C(=O)N[C@@]1(C)CCC/C=C\CCC[C@@](C)(C(=O)N[C@@H](CC(C)C)C(=O)N[C@@H](CCCCN)C(=O)N[C@@H](CCCCN)C(=O)N2CCC[C@H]2C(=O)N[C@H](C(=O)N[C@@H](CCCNC(=N)N)C(N)=O)C(C)C)NC(=O)[C@H](CCCNC(=N)N)NC(=O)[C@H](Cc2c[nH]c3ccccc23)NC(=O)[C@H](CCCCN)NC1=O)C(C)C)C(C)C (Ac-LKRVWKRVFKLLK[S5]KWR[S5]LKKPVR-NH2; staple (Z) 14-18)	38 (≈ 11.9 µM)	10.1 (≈ 3.16 µM)	5 (≈ 1.56 µM)	2.4 (≈ 0.75 µM)	53.6
CC(=O)N[C@@H](CC(C)C)C(=O)N[C@@H](CCCCN)C(=O)N[C@@H](CCCNC(=N)N)C(=O)N[C@H](C(=O)N[C@@H](Cc1c[nH]c2ccccc12)C(=O)N[C@@H](CCCCN)C(=O)N[C@@H](CCCNC(=N)N)C(=O)N[C@H](C(=O)N[C@@H](Cc1ccccc1)C(=O)N[C@@H](CCCCN)C(=O)N[C@@H](CC(C)C)C(=O)N[C@@H](CC(C)C)C(=O)N[C@@H](CCCCN)C(=O)N[C@@]1(C)CCC/C=C\CCC[C@@](C)(C(=O)N[C@@H](CC(C)C)C(=O)N[C@@H](CCCCN)C(=O)N[C@@H](CCCCN)C(=O)N2CCC[C@H]2C(=O)N[C@H](C(=O)N[C@@H](CCCNC(=N)N)C(N)=O)C(C)C)NC(=O)[C@H](CCCNC(=N)N)NC(=O)[C@H](CCCCN)NC(=O)[C@H](Cc2ccc(O)cc2)NC1=O)C(C)C)C(C)C (Ac-LKRVWKRVFKLLK[S5]YKR[S5]LKKPVR-NH2; staple (Z) 14-18)	38 (≈ 12 µM)	4.9 (≈ 1.54 µM)	5 (≈ 1.57 µM)	4.7 (≈ 1.48 µM)	21
CC(=O)N[C@@H](CC(C)C)C(=O)N[C@@H](CCCCN)C(=O)N[C@@H](CCCNC(=N)N)C(=O)N[C@H](C(=O)N[C@@H](Cc1c[nH]c2ccccc12)C(=O)N[C@@H](CCCCN)C(=O)N[C@@H](CCCNC(=N)N)C(=O)N[C@H](C(=O)N[C@@H](Cc1ccccc1)C(=O)N[C@@H](CCCCN)C(=O)N[C@@H](CC(C)C)C(=O)N[C@@H](CC(C)C)C(=O)N[C@@H](CCCCN)C(=O)N[C@@]1(C)CCC/C=C\CCC[C@@](C)(C(=O)N[C@@H](CCCCN)C(=O)N[C@@H](CCCCN)C(=O)N[C@@H](CCCCN)C(=O)N2CCC[C@H]2C(=O)N[C@H](C(=O)N[C@@H](CCCNC(=N)N)C(N)=O)C(C)C)NC(=O)[C@H](CCCNC(=N)N)NC(=O)[C@H](Cc2c[nH]c3ccccc23)NC(=O)[C@H](Cc2ccc(O)cc2)NC1=O)C(C)C)C(C)C (Ac-LKRVWKRVFKLLK[S5]YWR[S5]KKKPVR-NH2; staple (Z) 14-18)	19 (≈ 5.85 µM)	10.1 (≈ 3.11 µM)	5 (≈ 1.54 µM)	4.7 (≈ 1.45 µM)	10.8
CC(=O)N[C@@H](CC(C)C)C(=O)N[C@@H](CCCCN)C(=O)N[C@@H](CCCNC(=N)N)C(=O)N[C@H](C(=O)N[C@@H](Cc1c[nH]c2ccccc12)C(=O)N[C@@H](CCCCN)C(=O)N[C@@H](CCCNC(=N)N)C(=O)N[C@H](C(=O)N[C@@H](Cc1ccccc1)C(=O)N[C@@H](CCCCN)C(=O)N[C@@H](CC(C)C)C(=O)N[C@@H](CC(C)C)C(=O)N[C@@H](CCCCN)C(=O)N[C@@]1(C)CCC/C=C\CCC[C@@](C)(C(=O)N[C@@H](CC(C)C)C(=O)N[C@@H](CCCCN)C(=O)N[C@@H](CCCCN)C(=O)N[C@@H](CCCCN)C(=O)N[C@H](C(=O)N[C@@H](CCCNC(=N)N)C(N)=O)C(C)C)NC(=O)[C@H](CCCNC(=N)N)NC(=O)[C@H](Cc2c[nH]c3ccccc23)NC(=O)[C@H](Cc2ccc(O)cc2)NC1=O)C(C)C)C(C)C (Ac-LKRVWKRVFKLLK[S5]YWR[S5]LKKKVR-NH2; staple (Z) 14-18)	10.1 (≈ 3.09 µM)	4.9 (≈ 1.5 µM)	5 (≈ 1.53 µM)	4.7 (≈ 1.44 µM)	13.1
CC(=O)N[C@@H](CC(C)C)C(=O)N[C@@H](CCCCN)C(=O)N[C@@H](CCCNC(=N)N)C(=O)N[C@H](C(=O)N[C@@H](Cc1c[nH]c2ccccc12)C(=O)N[C@@H](CCCCN)C(=O)N[C@@H](CCCNC(=N)N)C(=O)N[C@H](C(=O)N[C@@H](Cc1ccccc1)C(=O)N[C@@H](CCCCN)C(=O)N[C@@H](CC(C)C)C(=O)N[C@@H](CC(C)C)C(=O)N[C@@H](CCCCN)C(=O)N[C@@]1(C)CCC/C=C\CCC[C@@](C)(C(=O)N[C@@H](CC(C)C)C(=O)N[C@@H](CCCCN)C(=O)N[C@@H](CCCCN)C(=O)N2CCC[C@H]2C(=O)N[C@@H](CCCCN)C(=O)N[C@@H](CCCNC(=N)N)C(N)=O)NC(=O)[C@H](CCCNC(=N)N)NC(=O)[C@H](Cc2c[nH]c3ccccc23)NC(=O)[C@H](Cc2ccc(O)cc2)NC1=O)C(C)C)C(C)C (Ac-LKRVWKRVFKLLK[S5]YWR[S5]LKKPKR-NH2; staple (Z) 14-18)	19.2 (≈ 5.89 µM)	4.9 (≈ 1.5 µM)	5 (≈ 1.53 µM)	4.7 (≈ 1.44 µM)	8.9
